Species: Rattus norvegicus
Assay: Open TG-GATES - Regimen: Single
Assay type: toxicity, organism-based, Sprague-Dawley
Design: regimen Single, gender Male, age 6 weeks
Conditions: in vivo, po, route gavage; for Bas / Eos / Fbg / Hb / Ht / Lym / MCHC / MCV / Mono / Neu / PT / Plat / RBC / WBC / MCH / APTT: tissue Blood; for KIDNEY_L / KIDNEY_R / KIDNEY_TOTAL: tissue Kidney; for LIVER: tissue Liver; for ALT / AST / BUN / CRE / Cl / DBIL / GLC / IP / LDH / Na / RALB / TBIL / TC / TG / TP / gamma-GTP: tissue Plasma
[1] = 20 mg/kg, 3 h, dose level Middle

CC/C(=C(\c1ccccc1)c1ccc(OCCN(C)C)cc1)c1ccccc1 [TAMOXIFEN]
Bas (6 mg/kg, 3 h, dose level Low): 0% | Eos (6 mg/kg, 3 h, dose level Low): 1% | Fbg (6 mg/kg, 3 h, dose level Low): 247 mg/dL | Hb (6 mg/kg, 3 h, dose level Low): 13.1 g/dL | Ht (6 mg/kg, 3 h, dose level Low): 39.6% | Lym (6 mg/kg, 3 h, dose level Low): 78.4% | MCHC (6 mg/kg, 3 h, dose level Low): 33.1% | MCV (6 mg/kg, 3 h, dose level Low): 64.6 fL | Mono (6 mg/kg, 3 h, dose level Low): 3.4% | Neu (6 mg/kg, 3 h, dose level Low): 16.6% | PT (6 mg/kg, 3 h, dose level Low): 12 s | Plat (6 mg/kg, 3 h, dose level Low): 122.7 x10_4/uL | RBC (6 mg/kg, 3 h, dose level Low): 612.6 x10_4/ul | WBC (6 mg/kg, 3 h, dose level Low): 83.4 x10_2/uL | KIDNEY_L (6 mg/kg, 3 h, dose level Low): 0.8 g | KIDNEY_R (6 mg/kg, 3 h, dose level Low): 0.9 g | KIDNEY_TOTAL (6 mg/kg, 3 h, dose level Low): 1.7 g | LIVER (6 mg/kg, 3 h, dose level Low): 8.4 g | ALT (6 mg/kg, 3 h, dose level Low): 50.6 IU/L | AST (6 mg/kg, 3 h, dose level Low): 81.2 IU/L | BUN (6 mg/kg, 3 h, dose level Low): 11.2 mg/dL | CRE (6 mg/kg, 3 h, dose level Low): 0.2 mg/dL | Cl (6 mg/kg, 3 h, dose level Low): 107.6 meq/L | DBIL (6 mg/kg, 3 h, dose level Low): 0.032 mg/dL | GLC (6 mg/kg, 3 h, dose level Low): 173.4 mg/dL | IP (6 mg/kg, 3 h, dose level Low): 8.9 mg/dL | LDH (6 mg/kg, 3 h, dose level Low): 58.2 IU/L | Na (6 mg/kg, 3 h, dose level Low): 140.4 meq/L | RALB (6 mg/kg, 3 h, dose level Low): 2.6 g/dL | TBIL (6 mg/kg, 3 h, dose level Low): 0.046 mg/dL | TC (6 mg/kg, 3 h, dose level Low): 80.8 mg/dL | TG (6 mg/kg, 3 h, dose level Low): 113.6 mg/dL | TP (6 mg/kg, 3 h, dose level Low): 5.6 g/dL | gamma-GTP (6 mg/kg, 3 h, dose level Low): 1 IU/L | TERMINAL_BW (6 mg/kg, 6 h, dose level Low): 195.3 g | Bas (6 mg/kg, 6 h, dose level Low): 0% | Eos (6 mg/kg, 6 h, dose level Low): 1% | Fbg (6 mg/kg, 6 h, dose level Low): 258.6 mg/dL | Hb (6 mg/kg, 6 h, dose level Low): 13.1 g/dL | Ht (6 mg/kg, 6 h, dose level Low): 39.6% | Lym (6 mg/kg, 6 h, dose level Low): 77.4% | MCH (6 mg/kg, 6 h, dose level Low): 21.6 pg | MCHC (6 mg/kg, 6 h, dose level Low): 33.2% | MCV (6 mg/kg, 6 h, dose level Low): 65.1 fL | Mono (6 mg/kg, 6 h, dose level Low): 3.2% | Neu (6 mg/kg, 6 h, dose level Low): 18% | PT (6 mg/kg, 6 h, dose level Low): 12.1 s | Plat (6 mg/kg, 6 h, dose level Low): 120.4 x10_4/uL | RBC (6 mg/kg, 6 h, dose level Low): 608.2 x10_4/ul | WBC (6 mg/kg, 6 h, dose level Low): 67.4 x10_2/uL | KIDNEY_L (6 mg/kg, 6 h, dose level Low): 0.9 g | KIDNEY_R (6 mg/kg, 6 h, dose level Low): 0.9 g | KIDNEY_TOTAL (6 mg/kg, 6 h, dose level Low): 1.7 g | LIVER (6 mg/kg, 6 h, dose level Low): 8.2 g | ALT (6 mg/kg, 6 h, dose level Low): 41 IU/L | AST (6 mg/kg, 6 h, dose level Low): 77 IU/L | BUN (6 mg/kg, 6 h, dose level Low): 8.2 mg/dL | CRE (6 mg/kg, 6 h, dose level Low): 0.1 mg/dL | Cl (6 mg/kg, 6 h, dose level Low): 108.2 meq/L | DBIL (6 mg/kg, 6 h, dose level Low): 0.014 mg/dL | GLC (6 mg/kg, 6 h, dose level Low): 180.2 mg/dL | IP (6 mg/kg, 6 h, dose level Low): 10.9 mg/dL | LDH (6 mg/kg, 6 h, dose level Low): 93.6 IU/L | Na (6 mg/kg, 6 h, dose level Low): 141.6 meq/L | RALB (6 mg/kg, 6 h, dose level Low): 2.5 g/dL | TBIL (6 mg/kg, 6 h, dose level Low): 0.05 mg/dL | TC (6 mg/kg, 6 h, dose level Low): 81.4 mg/dL | TG (6 mg/kg, 6 h, dose level Low): 46.6 mg/dL | TP (6 mg/kg, 6 h, dose level Low): 5.4 g/dL | gamma-GTP (6 mg/kg, 6 h, dose level Low): 1.4 IU/L | TERMINAL_BW (6 mg/kg, 9 h, dose level Low): 191.5 g | APTT (6 mg/kg, 9 h, dose level Low): 16 s | Bas (6 mg/kg, 9 h, dose level Low): 0% | Eos (6 mg/kg, 9 h, dose level Low): 1% | Fbg (6 mg/kg, 9 h, dose level Low): 248.8 mg/dL | Hb (6 mg/kg, 9 h, dose level Low): 12.8 g/dL | Lym (6 mg/kg, 9 h, dose level Low): 68.8% | MCH (6 mg/kg, 9 h, dose level Low): 21.5 pg | MCHC (6 mg/kg, 9 h, dose level Low): 33.5% | MCV (6 mg/kg, 9 h, dose level Low): 64.3 fL | Mono (6 mg/kg, 9 h, dose level Low): 2.6% | Neu (6 mg/kg, 9 h, dose level Low): 27.2% | PT (6 mg/kg, 9 h, dose level Low): 12.5 s | Plat (6 mg/kg, 9 h, dose level Low): 116.1 x10_4/uL | RBC (6 mg/kg, 9 h, dose level Low): 597.4 x10_4/ul | WBC (6 mg/kg, 9 h, dose level Low): 68.7 x10_2/uL | KIDNEY_L (6 mg/kg, 9 h, dose level Low): 0.8 g | KIDNEY_R (6 mg/kg, 9 h, dose level Low): 0.8 g | KIDNEY_TOTAL (6 mg/kg, 9 h, dose level Low): 1.6 g | LIVER (6 mg/kg, 9 h, dose level Low): 7.1 g | ALT (6 mg/kg, 9 h, dose level Low): 39 IU/L | AST (6 mg/kg, 9 h, dose level Low): 77.2 IU/L | BUN (6 mg/kg, 9 h, dose level Low): 9.6 mg/dL | CRE (6 mg/kg, 9 h, dose level Low): 0.2 mg/dL | Cl (6 mg/kg, 9 h, dose level Low): 108.2 meq/L | DBIL (6 mg/kg, 9 h, dose level Low): 0.01 mg/dL | GLC (6 mg/kg, 9 h, dose level Low): 186.6 mg/dL | IP (6 mg/kg, 9 h, dose level Low): 11 mg/dL | LDH (6 mg/kg, 9 h, dose level Low): 62.4 IU/L | Na (6 mg/kg, 9 h, dose level Low): 143.6 meq/L | RALB (6 mg/kg, 9 h, dose level Low): 2.5 g/dL | TBIL (6 mg/kg, 9 h, dose level Low): 0.046 mg/dL | TC (6 mg/kg, 9 h, dose level Low): 67.2 mg/dL | TG (6 mg/kg, 9 h, dose level Low): 33.4 mg/dL | TP (6 mg/kg, 9 h, dose level Low): 5.3 g/dL | gamma-GTP (6 mg/kg, 9 h, dose level Low): 1 IU/L | TERMINAL_BW (6 mg/kg, 24 h, dose level Low): 194.3 g | APTT (6 mg/kg, 24 h, dose level Low): 17.4 s | Bas (6 mg/kg, 24 h, dose level Low): 0% | Eos (6 mg/kg, 24 h, dose level Low): 1.2% | Fbg (6 mg/kg, 24 h, dose level Low): 250.2 mg/dL | Hb (6 mg/kg, 24 h, dose level Low): 12.8 g/dL | Ht (6 mg/kg, 24 h, dose level Low): 38.6% | Lym (6 mg/kg, 24 h, dose level Low): 79% | MCH (6 mg/kg, 24 h, dose level Low): 20.9 pg | MCHC (6 mg/kg, 24 h, dose level Low): 33.2% | MCV (6 mg/kg, 24 h, dose level Low): 62.9 fL | Mono (6 mg/kg, 24 h, dose level Low): 3.2% | Neu (6 mg/kg, 24 h, dose level Low): 16.4% | PT (6 mg/kg, 24 h, dose level Low): 12.8 s | Plat (6 mg/kg, 24 h, dose level Low): 113.7 x10_4/uL | RBC (6 mg/kg, 24 h, dose level Low): 613.8 x10_4/ul | WBC (6 mg/kg, 24 h, dose level Low): 80.8 x10_2/uL | KIDNEY_L (6 mg/kg, 24 h, dose level Low): 0.9 g | KIDNEY_R (6 mg/kg, 24 h, dose level Low): 0.9 g | KIDNEY_TOTAL (6 mg/kg, 24 h, dose level Low): 1.7 g | LIVER (6 mg/kg, 24 h, dose level Low): 8.7 g | ALT (6 mg/kg, 24 h, dose level Low): 51 IU/L | AST (6 mg/kg, 24 h, dose level Low): 79.8 IU/L | BUN (6 mg/kg, 24 h, dose level Low): 12.8 mg/dL | CRE (6 mg/kg, 24 h, dose level Low): 0.2 mg/dL | Cl (6 mg/kg, 24 h, dose level Low): 108 meq/L | DBIL (6 mg/kg, 24 h, dose level Low): 0.012 mg/dL | GLC (6 mg/kg, 24 h, dose level Low): 184.4 mg/dL | IP (6 mg/kg, 24 h, dose level Low): 8 mg/dL | LDH (6 mg/kg, 24 h, dose level Low): 55.2 IU/L | Na (6 mg/kg, 24 h, dose level Low): 142.4 meq/L | RALB (6 mg/kg, 24 h, dose level Low): 2.5 g/dL | TBIL (6 mg/kg, 24 h, dose level Low): 0.036 mg/dL | TC (6 mg/kg, 24 h, dose level Low): 61.6 mg/dL | TG (6 mg/kg, 24 h, dose level Low): 64.2 mg/dL | TP (6 mg/kg, 24 h, dose level Low): 5.4 g/dL | gamma-GTP (6 mg/kg, 24 h, dose level Low): 1.4 IU/L | TERMINAL_BW [1]: 194.9 g | APTT [1]: 16.5 s | Bas [1]: 0.2%

From ChEMBL document CHEMBL3885861, “Open TG-GATES”
